The text below walks through data of patent US11524938B2, “Aromatic sulfonamide derivatives” (Bayer Pharma Aktiengesellschaft, priority 2016, dated 2022).

One assay deals with T1, endogenous P2X4 channels (Homo sapiens, UniProt Q99571).
T1 construct: measure calcium influx through endogenous P2X4 channels into primary human monocytes
T1 sequence (Q99571 1-388): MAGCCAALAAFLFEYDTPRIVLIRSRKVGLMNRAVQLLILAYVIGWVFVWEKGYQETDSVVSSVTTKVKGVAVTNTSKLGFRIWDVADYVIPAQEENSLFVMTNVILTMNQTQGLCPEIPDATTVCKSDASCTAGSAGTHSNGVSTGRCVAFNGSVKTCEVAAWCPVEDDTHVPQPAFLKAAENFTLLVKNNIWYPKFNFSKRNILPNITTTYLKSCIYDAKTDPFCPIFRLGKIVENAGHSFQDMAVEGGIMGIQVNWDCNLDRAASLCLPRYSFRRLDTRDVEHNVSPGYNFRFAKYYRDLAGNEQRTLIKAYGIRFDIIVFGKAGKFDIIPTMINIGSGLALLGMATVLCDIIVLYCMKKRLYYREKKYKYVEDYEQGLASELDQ
Kind of assay: Human Monocyte P2X4 Assay (FLIPR). Type of assay: cell-based. The settings on record: primary human monocytes, 3 μM BzATP, one value per donor. On the procedure: The principle of the assay is to measure calcium influx through endogenous P2X4 channels into primary human monocytes, following activation by 2′,3′-O-(4-benzoyl-benzoyl)-ATP (Bz-ATP). Intracellular calcium concentration changes were measured with a Flipr® (Molecular Devices) device using a calcium sensitive dye (Fluo-8). In primary monocytes P2X4 is located at the lysosome membrane, therefore exocytosis has to be triggered to expose P2X4 at the cellular membrane.
Human peripheral blood mononuclear cells (PBMCs) from anticoagulated blood (blood cells, BC) were isolated via density gradient centrifugation. Whole blood was diluted 1:3 with PBS. Samples of 30 mL were layered carefully on top of 15 mL Biocoll (BIOCHROM) in 50 mL centrifuge tubes (Falcon). Tubes were centrifuged at 914×g for 25 min at RT without brake. The PBMC layer was removed with a 10 mL pipette and transferred into tubes with ice-cold PBS in a total volume of 50 mL. Cells were washed twice by pelleting at 300×g at 4° C., for 10 min and for 5 min respectively. PBMCs were re-suspended in 10 mL medium (X-vivo, Biozym Scientific) and counted in a Neubauer chamber.
Monocytes were isolated by negative selection using the Monocyte isolation kit II from Miltenyi (#130-091-153) according to the instructions. Isolation should be done fast and cells and solutions should be kept on ice at any time. PBMCs in batches of 10 exp8 cells were pelleted (300×g, 10 min) and re-suspended with 300 μL MACS buffer in a 50 mL Falcon tube. FcR Blocking reagent (100 μl) and Biotin-Ab (100 μl) were added, mixed and incubated on ice for 10 min. MACS buffer (300 μL) and anti-Biotin Micro-beads (100 μL) were added, mixed and incubated on ice for 15 min. Cells were washed by pelleting (300×g for 10 min) and re-suspended in 500 μL MACS buffer. For each batch one separation column was placed in the MACS separator and rinsed with 3 mL MACS buffer. The cell suspension was added to the column, followed by 3×3 mL MACS buffer for washing, and the eluent containing the monocytes was collected. Cells were pelleted (300×g for 10 min), re-suspended in X-vivo medium and counted. Monocytes were seeded into fibronectin-coated micro-plates (384-well, black, flat transparent bottom; Corning #3848) at a density of 30,000 cells/well in 50 μL, and cultivated over night (37° C., 5% CO2).
Test substances were dissolved in 100% DMSO at a stock concentration of 10 mM and stored at −20° C. in aliquots. Serial dilutions (2×) were prepared in DMSO and diluted 500× with assay buffer to generate the antagonist plate. In the Flipr measurement, 10 μL per well were transferred (4× dilution) and a final top concentrations of 5 μM and 0.05% DMSO were obtained in the assay. Agonist BzATP was stored at 10 mM in aliquots and diluted to an intermediate concentration of 15 μM to generate the agonist plate. In the Flipr measurement, 10 μL per well were transferred (5× dilution) so that a final assay concentration of 3 μM was obtained.
For the experiment, the medium of the cell plate was discarded manually and 70 μL/well loading buffer was added and incubated for 1 h (37° C., 5% CO2). Loading buffer contained HBSS (w/o calcium/magnesium), 10 mM Hepes pH 7.4, 5 μM Fluo-8 (AM) (Tebu-bio) and 50 mM methylamine (Sigma) to trigger exocytosis. Loading buffer was discarded manually and 30 μL/well low-calcium assay buffer (5 mM KCl, 145 mM NaCl, 0.5 mM CaCl2, 13 mM glucose, 10 mM Hepes pH 7.4) was added. The antagonist plate was transferred (10 μL/well) and after 15 min at RT the agonist plate (10 μL/well) was transferred.
Agonist addition was recorded for 240 seconds after a 10 second baseline. For analysis, a baseline correction was applied, and the maximum of the curve was extracted. Data were normalized towards 0% inhibition (signal at 3 μM BzATP) and 100% inhibition (absence of BzATP stimulation) and fitted with a four-parameter sigmoidal inhibition curve using Prism GraphPad to obtain IC50 values.

Another assay addresses T2, human P2X4 (Homo sapiens, UniProt Q99571).
T2 sequence (Q99571 1-388): T1 sequence (Q99571 1-388)
Kind of assay: Human P2X4 HEK Cell FLIPR Assay. Type of assay: cell-based. The note with it: agonist Bz-ATP at EC80; for Emax: HEK293, HEK293 cells, percentage of maximal inhibition, read-out: Human P2X4 HEK Cells (FLIPR Assay) avg Efficacy [%]; for pIC50: HEK293 cells, individual values listed where some fall outside detection range. The essentials: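 HEK293 cells stably expressing human P2X4, Fluo8-AM loaded 30 min at 37° C, then compound 30 min at room temperature (0.5% DMSO, pH 7.4 buffer with 1.8 mM CaCl2). Bz-ATP at its daily-determined EC80 added; calcium fluorescence read over 120 sec; IC50 from peak RFU normalized to agonist control, triplicates.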

pIC50: −log10 of the molar value. Several values for one entry are separate records, joined by “and”; a condition that tells them apart may be missing. Equal values may be shown once.

As to `NS(=O)(=O)c1cc(NC(=O)Cc2ccccc2Cl)ccc1-n1cnc(Cl)n1` [Example 24, 2-(2-Chlorophenyl)-N-[4-(3-chloro-1H-1,2,4-triazol-1-yl)-3-sulfamoylphenyl]-acetamide], the “Human P2X4 Monocytes (FLIPR Assay) Efficacy for different donors” value (from here on “Human P2X4 Monocytes … for different donors”) on endogenous P2X4 channels was 77% and 88%. Also, the Emax at human P2X4 was determined as 92%.
As to `NS(=O)(=O)c1cc(NC(=O)Cc2ccccc2Cl)ccc1-n1cc(F)cn1` [Example 26, 2-(2-Chlorophenyl)-N-[4-(4-fluoro-1H-pyrazol-1-yl)-3-sulfamoylphenyl]acetamide], the “Human P2X4 Monocytes … for different donors” value on endogenous P2X4 channels turned out to be 88%. Also, the Emax on human P2X4 was 85%.
Regarding `NS(=O)(=O)c1cc(NC(=O)Cc2ccccc2Cl)ccc1-n1cc(Br)cn1` [Example 28, N-[4-(4-Bromo-1H-pyrazol-1-yl)-3-sulfamoylphenyl]-2-(2-chlorophenyl)acetamide], the “Human P2X4 Monocytes … for different donors” value at endogenous P2X4 channels was 64% and 90%. Moreover, at human P2X4, the Emax was found to be 90%.
With `COc1ccc(CC(=O)Nc2ccc(-n3cc(Cl)cn3)c(S(N)(=O)=O)c2)cc1` [Example 170, N-[4-(4-Chloro-1H-pyrazol-1-yl)-3-sulfamoylphenyl]-2-(4-methoxyphenyl)acetamide], on endogenous P2X4 channels, the “Human P2X4 Monocytes … for different donors” value is 69% and 54%. Besides, at human P2X4, the Emax was found to be 70%.
A word on the pIC50: it is −log10 of the IC50, conventionally taken in molar units. With `NS(=O)(=O)c1cc(NC(=O)Cc2ccccc2F)cnc1-c1cnn(C(F)F)c1` [Example 321, N-{6-[1-(Difluoromethyl)-1H-pyrazol-4-yl]-5-sulfamoylpyridin-3-yl}-2-(2-fluorophenyl)acetamide], the “Human P2X4 Monocytes … for different donors” value on endogenous P2X4 channels is 34% and 46% and 95%. Further, the Emax came to 49% on endogenous P2X4 channels (read-out: Human P2X4 Monocytes (FLIPR Assay) Efficacy for different donors) and 84% at human P2X4. Moreover, the pIC50 at endogenous P2X4 channels (read-out: Human P2X4 Monocytes (FLIPR Assay) IC50 for different donors) was 6.80.
As to `NS(=O)(=O)c1cc(NC(=O)Cc2ccccc2Cl)ccc1-n1cccn1` [Example 544, 2-(2-Chlorophenyl)-N-[4-(1H-pyrazol-1-yl)-3-sulfamoylphenyl]acetamide], at human P2X4, the Emax was determined as 85% and the negative-log IC50 (pIC50) is 9.00.
As to `Cc1cc(C#N)nn1-c1ccc(NC(=O)Cc2ccccc2Cl)cc1S(N)(=O)=O` [Example 545, 2-(2-Chlorophenyl)-N-[4-(3-cyano-5-methyl-1H-pyrazol-1-yl)-3-sulfamoylphenyl]acetamide], at human P2X4, the Emax came out at 100% and the pIC50 is 7.72.
In the same order, the values of `Cc1cc(O)nn1-c1ccc(NC(=O)Cc2ccccc2Cl)cc1S(N)(=O)=O` [Example 546, 2-(2-Chlorophenyl)-N-[4-(3-hydroxy-5-methyl-1H-pyrazol-1-yl)-3-sulfamoylphenyl]acetamide] are 75% and 7.01.
For `Cc1c(C#N)cnn1-c1ccc(NC(=O)Cc2ccccc2Cl)cc1S(N)(=O)=O` [Example 547, 2-(2-Chlorophenyl)-N-[4-(4-cyano-5-methyl-1H-pyrazol-1-yl)-3-sulfamoylphenyl]acetamide], at human P2X4, the Emax came out at 94% and the pIC50 is 7.22.
Regarding `Cc1nn(-c2ccc(NC(=O)Cc3ccccc3Cl)cc2S(N)(=O)=O)cc1C#N` [Example 548, 2-(2-Chlorophenyl)-N-[4-(4-cyano-3-methyl-1H-pyrazol-1-yl)-3-sulfamoylphenyl]acetamide], at human P2X4, the Emax came to 94% and the pIC50 was 8.30.
`NS(=O)(=O)c1cc(NC(=O)Cc2ccccc2Cl)ccc1-c1nc(N2CCOCC2)cs1` [Example 549, 2-(2-Chlorophenyl)-N-{4-[4-(morpholin-4-yl)-1,3-thiazol-2-yl]-3-sulfamoylphenyl}acetamide]: at human P2X4, the Emax was 85% and the pIC50 was 8.10.
Taken in the same sequence, the figures for `NS(=O)(=O)c1cc(NC(=O)Cc2ccccc2Cl)ccc1-c1ncc(N2CCOCC2)s1` [Example 550, 2-(2-Chlorophenyl)-N-{4-[5-(morpholin-4-yl)-1,3-thiazol-2-yl]-3-sulfamoylphenyl}acetamide] were 87% and 9.00.
Turning to `NS(=O)(=O)c1cc(NC(=O)Cc2ccccc2Cl)ccc1-c1ccncc1` [Example 552, 2-(2-Chlorophenyl)-N-[4-(pyridin-4-yl)-3-sulfamoylphenyl]acetamide], on human P2X4, the Emax came to 88% and the pIC50 is 9.00.
With `NC(=O)c1cnn(-c2ccc(NC(=O)Cc3ccccc3Cl)cc2S(N)(=O)=O)c1` [Example 553, 1-(4-{[(2-Chlorophenyl)acetyl]amino}-2-sulfamoylphenyl)-1H-pyrazole-4-carboxamide], at human P2X4, the Emax stood at 82% and the pIC50 was 8.30.
For the compound `N#Cc1cnn(-c2ccc(NC(=O)Cc3cccc(O)c3Cl)cc2S(N)(=O)=O)c1` [Example 554, 2-(2-Chloro-3-hydroxyphenyl)-N-[4-(4-cyano-1H-pyrazol-1-yl)-3-sulfamoylphenyl]acetamide], on human P2X4, the Emax stood at 83% and the pIC50 is 6.42.
Taken in the same sequence, the figures for `N#Cc1cnn(-c2ccc(NC(=O)Cc3ccc(O)cc3Cl)cc2S(N)(=O)=O)c1` [Example 555, 2-(2-Chloro-4-hydroxyphenyl)-N-[4-(4-cyano-1H-pyrazol-1-yl)-3-sulfamoylphenyl]acetamide] were 94% and 7.66.
`N#Cc1cnn(-c2ccc(NC(=O)Cc3cc(O)ccc3Cl)cc2S(N)(=O)=O)c1` [Example 556, 2-(2-Chloro-5-hydroxyphenyl)-N-[4-(4-cyano-1H-pyrazol-1-yl)-3-sulfamoylphenyl]acetamide]: on human P2X4, the Emax is 94% and the pIC50 is 7.19.
As to `N#Cc1cnn(-c2ccc(NC(=O)Cc3c(O)cccc3Cl)cc2S(N)(=O)=O)c1` [Example 557, 2-(2-Chloro-6-hydroxyphenyl)-N-[4-(4-cyano-1H-pyrazol-1-yl)-3-sulfamoylphenyl]acetamide], at human P2X4, the Emax worked out at 89% and the pIC50 was 7.96.
Consider `N#Cc1cnn(-c2ccc(NC(=O)C(O)c3ccccc3Cl)cc2S(N)(=O)=O)c1` (stereo not shown) [Example 558, 2-(2-Chlorophenyl)-N-[4-(4-cyano-1H-pyrazol-1-yl)-3-sulfamoylphenyl]-2-hydroxyacetamide], for which, on human P2X4, the Emax was 75% and the pIC50 was 5.86.
